# Measured values reported in ChEMBL document CHEMBL2016544, “Low brain penetrant CB1 receptor agonists for the treatment of neuropathic pain” (Bioorg Med Chem Lett, 2012).
# Activity calls are given as the source filed them. The calls are words filed in the database; no cut-off is given here.
# Tests used:
# [1] = Intrinsic clearance in rat liver microsomes; assay type: ADME, Microsome; conditions: read-out: CLH
# [2] = Oral bioavailability in rat; assay type: ADME, organism-based; conditions: in vivo
# [3] = Solubility of the compound at pH 7.4; assay type: physicochemical; conditions: buffer
# [4] = target: T1, Cannabinoid receptor 1 (Homo sapiens, UniProt P21554); assay: Agonist activity at CB1 receptor; assay type: functional
# T1 sequence (P21554 whole entry): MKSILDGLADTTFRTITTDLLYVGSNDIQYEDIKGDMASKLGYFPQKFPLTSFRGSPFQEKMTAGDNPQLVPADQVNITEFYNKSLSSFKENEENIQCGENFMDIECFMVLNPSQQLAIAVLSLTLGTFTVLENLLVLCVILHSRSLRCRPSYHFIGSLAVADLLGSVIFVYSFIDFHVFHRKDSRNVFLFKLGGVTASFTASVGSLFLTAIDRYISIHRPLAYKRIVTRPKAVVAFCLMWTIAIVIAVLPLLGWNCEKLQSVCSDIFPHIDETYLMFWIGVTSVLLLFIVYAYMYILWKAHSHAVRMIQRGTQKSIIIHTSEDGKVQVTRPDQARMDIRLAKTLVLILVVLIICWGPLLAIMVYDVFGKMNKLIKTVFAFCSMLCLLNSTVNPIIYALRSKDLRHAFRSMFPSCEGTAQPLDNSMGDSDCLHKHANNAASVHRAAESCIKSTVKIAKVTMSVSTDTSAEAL
# [5] = Ratio of drug level in brain to plasma in mouse; assay type: ADME, organism-based; conditions: read-out: BPR
# [6] = Intrinsic clearance in human liver microsomes; assay type: ADME, Microsome; conditions: read-out: CLH
# [7] = target: T1, Cannabinoid receptor 1; assay: Displacement of [3H]CP 55,940 from human CB1 receptor expressed in insect sf9 membranes; assay type: cell membranes
# [8] = target: Cannabinoid receptor 2 (Homo sapiens, UniProt P34972); assay: Displacement of [3H]CP 55,940 from human CB2 receptor expressed in insect sf9 membranes; assay type: cell membranes
# Cannabinoid receptor 2, sequence (P34972 whole entry): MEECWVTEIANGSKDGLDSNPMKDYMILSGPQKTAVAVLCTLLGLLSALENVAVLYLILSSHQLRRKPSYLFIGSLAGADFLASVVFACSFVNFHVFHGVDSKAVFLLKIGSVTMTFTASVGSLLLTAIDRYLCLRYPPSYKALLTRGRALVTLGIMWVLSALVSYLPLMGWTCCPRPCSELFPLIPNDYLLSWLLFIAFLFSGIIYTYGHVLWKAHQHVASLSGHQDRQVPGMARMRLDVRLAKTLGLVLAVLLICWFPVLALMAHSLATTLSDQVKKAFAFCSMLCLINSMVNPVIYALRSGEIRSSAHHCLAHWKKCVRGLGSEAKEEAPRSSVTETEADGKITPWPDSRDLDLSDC
# [9] = Ratio of AUC in CSF to free plasma of Wistar BRL rat at 24 mg/kg, po by LC-MS/MS analysis; assay type: ADME, organism-based; design: dose 24 mg/kg, route oral; conditions: in vivo
# [10] = Plasma protein binding in dog; assay type: ADME, cell-free, Canis lupus familiaris; conditions: read-out: PPB (converted)
# [11] = test system: Rattus norvegicus; assay: Toxicity in po dosed rat assessed as catalepsy by ring immobility test; assay type: organism-based; conditions: in vivo
# [12] = Plasma protein binding in human; assay type: ADME, cell-free; conditions: read-out: PPB (converted)
# [13] = Cmax in Wistar BRL rat plasma at 24 mg/kg, po by LC-MS/MS analysis; assay type: ADME, organism-based; design: dose 24 mg/kg, route oral
# [14] = Plasma protein binding in rat; assay type: ADME, cell-free; conditions: read-out: PPB (converted)
# [15] = Ratio of AUC in brain to plasma of Wistar BRL rat at 24 mg/kg, po by LC-MS/MS analysis; assay type: ADME, organism-based; design: dose 24 mg/kg, route oral; conditions: read-out: Ratio AUC
# [16] = Intrinsic clearance in rat hepatocytes assessed per million cells; assay type: ADME, cell-based, Hepatocyte; conditions: read-out: CLH
# [17] = Ratio of Cmax in CSF to free plasma of Wistar BRL rat at 24 mg/kg, po by LC-MS/MS analysis; assay type: ADME, organism-based; design: dose 24 mg/kg, route oral; conditions: in vivo
# [18] = Plasma protein binding in rabbit; assay type: ADME, cell-free, Oryctolagus cuniculus; conditions: read-out: PPB (converted)
# [19] = Ratio of AUC in mouse brain to AUC in mouse plasma at 3 umol/kg, iv; assay type: ADME; conditions: read-out: Ratio AUC
# [20] = Ratio of Cmax in mouse brain to Cmax in mouse plasma at 3 umol/kg, iv; assay type: ADME
# [21] = Efflux ratio of apparent permeability from basolateral to apical side over apical to basolateral side in human Caco2 cells; assay type: ADME, cell-based; conditions: Caco-2
# [22] = Volume of distribution at steady state in rat at 2 mg/kg, iv; assay type: ADME, organism-based; design: dose 2 mg/kg, route intravenous; conditions: in vivo, read-out: Vdss
# [23] = target: Voltage-gated inwardly rectifying potassium channel KCNH2 (Homo sapiens, UniProt Q12809); assay: Displacement of [3H]dofetilide from human ERG
# Voltage-gated inwardly rectifying potassium channel KCNH2, sequence (Q12809 whole entry): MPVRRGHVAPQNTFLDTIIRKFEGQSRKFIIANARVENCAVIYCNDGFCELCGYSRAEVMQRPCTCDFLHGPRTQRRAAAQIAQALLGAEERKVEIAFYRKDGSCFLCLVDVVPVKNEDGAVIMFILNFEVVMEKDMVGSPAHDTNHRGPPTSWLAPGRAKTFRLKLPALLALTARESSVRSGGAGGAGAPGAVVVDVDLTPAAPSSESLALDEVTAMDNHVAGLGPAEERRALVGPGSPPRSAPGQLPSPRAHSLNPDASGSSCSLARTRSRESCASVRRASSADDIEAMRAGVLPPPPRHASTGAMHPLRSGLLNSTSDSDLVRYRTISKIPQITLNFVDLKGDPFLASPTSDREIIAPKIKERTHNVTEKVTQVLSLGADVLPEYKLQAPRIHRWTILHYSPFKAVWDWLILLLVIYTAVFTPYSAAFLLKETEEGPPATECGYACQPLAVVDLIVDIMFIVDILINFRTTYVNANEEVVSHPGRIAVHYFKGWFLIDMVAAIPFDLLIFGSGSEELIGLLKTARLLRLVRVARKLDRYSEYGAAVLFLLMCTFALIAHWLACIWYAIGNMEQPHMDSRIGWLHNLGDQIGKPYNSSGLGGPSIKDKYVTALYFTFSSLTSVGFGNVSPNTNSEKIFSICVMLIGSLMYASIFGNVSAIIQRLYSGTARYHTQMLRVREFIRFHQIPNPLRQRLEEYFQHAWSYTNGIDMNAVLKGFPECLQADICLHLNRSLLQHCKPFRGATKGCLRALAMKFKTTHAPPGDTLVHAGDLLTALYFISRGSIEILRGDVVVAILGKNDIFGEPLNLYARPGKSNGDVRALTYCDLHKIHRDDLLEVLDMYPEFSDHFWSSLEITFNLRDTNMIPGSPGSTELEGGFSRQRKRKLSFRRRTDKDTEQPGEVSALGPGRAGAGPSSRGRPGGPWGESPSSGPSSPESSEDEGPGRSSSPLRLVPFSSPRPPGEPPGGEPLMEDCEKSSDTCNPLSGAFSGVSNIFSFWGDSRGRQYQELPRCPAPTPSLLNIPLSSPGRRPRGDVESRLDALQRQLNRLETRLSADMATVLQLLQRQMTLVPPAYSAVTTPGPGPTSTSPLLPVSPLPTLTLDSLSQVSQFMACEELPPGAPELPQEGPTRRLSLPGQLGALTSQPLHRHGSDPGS
# [24] = Clearance in rat at 2 mg/kg, iv; assay type: ADME, organism-based; design: dose 2 mg/kg, route intravenous; conditions: in vivo
# [25] = Cmax in Wistar BRL rat CSF at 24 mg/kg, po by LC-MS/MS analysis; assay type: ADME, organism-based, Cerebrospinal fluid; design: dose 24 mg/kg, route oral
# [26] = Intrinsic clearance in dog liver microsomes; assay type: ADME, Canis lupus familiaris, Microsome; conditions: read-out: CLH
# [27] = Cmax in Wistar BRL rat brain at 24 mg/kg, po by LC-MS/MS analysis; assay type: ADME, organism-based; design: dose 24 mg/kg, route oral
# [28] = Intrinsic clearance in human hepatocytes assessed per million cells; assay type: ADME, cell-based, Hepatocyte; conditions: read-out: CLH
# [29] = Apparent permeability across human Caco2 cells; assay type: ADME, cell-based; conditions: Caco-2
# [30] = Intrinsic clearance in rabbit liver microsomes; assay type: ADME, Oryctolagus cuniculus, Microsome; conditions: read-out: CLH
# [31] = Cmax in mouse brain at 3 umol/kg, iv; assay type: ADME, organism-based; design: dose 3 umol/kg, route intravenous
# [32] = Cmax in mouse plasma at 3 umol/kg, iv; assay type: ADME, organism-based; design: dose 3 umol/kg, route intravenous
# [33] = Half life in rat at 2 mg/kg, iv; assay type: ADME, organism-based; design: dose 2 mg/kg, route intravenous; conditions: in vivo
# [34] = test system: Rattus norvegicus; assay: Analgesic activity in po dosed rat Chung von Frey model of neuropathic pain assessed as anti-allodynic effect against mechanical stimulus; assay type: functional
# [35] = test system: Rattus norvegicus; assay: Ratio of MED for toxicity in […] to ED50 for anti-allodynic activity in po dosed rat Chung von Frey model of neuropathic pain; assay type: functional
# [36] = Plasma protein binding in mouse; assay type: ADME, cell-free; conditions: read-out: PPB (converted)
# [37] = Intrinsic clearance in mouse liver microsomes; assay type: ADME, Microsome; conditions: read-out: CLH
# [38] = Ratio of Cmax in brain to plasma of Wistar BRL rat at 24 mg/kg, po by LC-MS/MS analysis; assay type: ADME, organism-based; design: dose 24 mg/kg, route oral
# [39] = test system: Rattus norvegicus; assay: Analgesic activity in po dosed rat Chung Hargreaves model of neuropathic pain assessed as inhibition of thermal hyperalgesia; assay type: functional
# [40] = test system: Rattus norvegicus; assay: Analgesic activity in po dosed rat Chung von Frey model of neuropathic pain assessed as anti-allodynic effect against mechanical stimulus in presence of CB1 receptor antagonist rimonabant; assay type: functional, organism-based
# [41] = Oral bioavailability in rat at 10 mg/kg; assay type: ADME, organism-based; conditions: in vivo
compound,measurement,setting,value
COc1cccc2c(-c3nsc(CN4CCN(CC(N)=O)CC4)n3)cn(CC3CCOCC3)c12,microsomal CLint,[1],17 µL/min/mg
same,bioavailability,[2],40%
same,solubility,[3],5 µg/mL
same,EC50,[4],79.4 nM
same,Kp,[5],0.18
same,microsomal CLint,[6],17 µL/min/mg
same,Ki,[7],6.31 nM
same,Ki,[8],15.8 nM
CN(CC(=O)NCCO)Cc1nc(-c2cn(CC3CCOCC3)c3c(Cl)cccc23)no1,microsomal CLint,[1],49 µL/min/mg
same,microsomal CLint,[6],66 µL/min/mg
COc1cccc2c(-c3noc(CN4CCC(C(=O)NCCO)CC4)n3)cn(CC3CCOCC3)c12,EC50,[4],631 nM
NC(=O)CN1CCN(Cc2nc(-c3cn(CC4CCS(=O)(=O)CC4)c4c(Cl)cccc34)no2)CC1,microsomal CLint,[1],48 µL/min/mg
same,EC50,[4],501 nM
same,microsomal CLint,[6],< 12 µL/min/mg
O=C(NCCO)C1CCN(Cc2nc(-c3cn(CC4CCOCC4)c4c(Cl)cccc34)ns2)CC1,microsomal CLint,[1],49 µL/min/mg
same,EC50,[4],79.4 nM
same,microsomal CLint,[6],18 µL/min/mg
NC(=O)CN1CCN(Cc2nc(-c3cn(CC4CCS(=O)(=O)CC4)c4c(Cl)cccc34)ns2)CC1,microsomal CLint,[1],< 12 µL/min/mg
same,pEC50,[4],6.7
same,microsomal CLint,[6],< 12 µL/min/mg
O=C(NCCO)[C@H]1CCCN(Cc2nc(-c3cn(CC4CCS(=O)(=O)CC4)c4c(Cl)cccc34)ns2)C1,microsomal CLint,[1],32 µL/min/mg
same,bioavailability,[2],1%
same,solubility,[3],45 µg/mL
same,EC50,[4],20 nM
same,Kp,[5],0.03
same,microsomal CLint,[6],47 µL/min/mg
same,Ki,[7],31.6 nM
same,Ki,[8],20 nM
CN(CC(N)=O)Cc1nc(-c2cn(CC3CCS(=O)(=O)CC3)c3c(Cl)cccc23)no1,microsomal CLint,[1],33 µL/min/mg
same,EC50,[4],158 nM
same,microsomal CLint,[6],26 µL/min/mg
CN(CC(N)=O)Cc1nc(-c2cn(CC3CCS(=O)(=O)CC3)c3c(Cl)cccc23)ns1,microsomal CLint,[1],52 µL/min/mg
same,EC50,[4],158 nM
same,microsomal CLint,[6],25 µL/min/mg
NC(=O)CN1CCN(Cc2nc(-c3cn(CC4CCOCC4)c4c(Cl)cccc34)no2)CC1,microsomal CLint,[1],< 12 µL/min/mg
same,Ratio AUC,[9],0.21
same,fraction unbound,[10],0.063
same,MED,[11],> 160 µmol/kg
same,fraction unbound,[12],0.04
same,bioavailability,[2],45%
same,Cmax,[13],722 ng/mL
same,fraction unbound,[14],0.039
same,solubility,[3],89 µg/mL
same,Kp,[15],0.22
same,hepatocyte CLint,[16],7 µL/min/1e6 cells
same,Ratio,[17],0.23
same,fraction unbound,[18],0.037
same,Kp,[19],0.16
same,Kp,[20],0.16
same,efflux ratio,[21],1.5
same,Vd,[22],2.6 L/kg
same,Ki,[23],20000 nM
same,clearance,[24],9.5 mL/min/kg
same,Cmax,[25],6.4 ng/mL
same,microsomal CLint,[26],13 µL/min/mg
same,Cmax,[27],148 ng/g
same,hepatocyte CLint,[28],3 µL/min/1e6 cells
same,Kp,[5],0.16
same,Papp,[29],6.2 ×10⁻⁶ cm/s
same,microsomal CLint,[30],< 12 µL/min/mg
same,Cmax,[31],134 ng/g
same,microsomal CLint,[6],12 µL/min/mg
same,Cmax,[32],814 ng/mL
same,half-life,[33],3.8 h
same,ED50,[34],17 µmol/kg
same,Ratio,[35],>9.3
same,fraction unbound,[36],0.034
same,microsomal CLint,[37],< 12 µL/min/mg
same,Kp,[38],0.2
same,ED50,[39],2.5 µmol/kg
same,Activity,[40],inactive
same,Ki,[7],20 nM
same,Ki,[8],50.1 nM
same,bioavailability,[41],45%
